Experimental data reported in patent US20100093616A1 (priority 2005, published 2010).

What was measured:
Type in all cases: in vivo, Lewis Rats
[1] = tested on: Experimental Autoimmune Encephalytis (EAE); test: Therapeutical effect in EAE biomodel (Example 1); conditions: therapeutical scheme; for N° of perivascular inflammatory infiltrates (Means ± SD): brain and spinal cord, day 40; for Incidence (%): i.p. 10 days from day 10 after first immunization, EGF/GHRP-6 200-740 μg/kg/day, EGF 200 μg/kg/day, GHRP-6 740 μg/kg/day, 8 rats per group
Experimental: Female Lewis Rats (130 g), were subcutaneously immunized with guinea pig spinal cord homogenate (5 mg) in PBS (50%) and complete Freund adjuvant (50%), during days 0 and 6. […] This therapeutical scheme was followed for 10 days, using intraperitoneal administration. Clinical scores was based on the following grading: 0; no symptom, 1; tail paralysis, 2; paralysis of any of the hind limbs, 3; full paralysis of the hind limbs, 4; complete paralysis of the fore and hind limbs 5; moribund or death. Weight loss and vesical and rectal sphincter incontinency, which are also clinical signs of the disease, are scored by adding 0.5 to the clinical index previously described. Forty days after the first immunization the animals were anesthetized and euthanized, the encephalon and spinal cord were processed for histopathological study (10% de formalin, H & E y Luxol Blue staining). For the histopathological analysis the following parameters were consider: number and size of perivascular inflammatory infiltrates, number of demyelination lesions, number of apoptotic neurons and glial cells and astrocytes reactivity. The microscopic study was blindly conducted.

[2] = tested on: Experimental Autoimmune Encephalytis (EAE); test: Prophylactic scheme in EAE animal model (Example 2); conditions: for Clinical scores maximum / Clinical scores minimum / Incidence (%): EGF/GHRP-6 200-740, EGF 200, GHRP-6 740 μg/kg/day; for N° of perivascular inflammatory infiltrates (Means ± SD): brain and spinal cord, day 40, EGF/GHRP-6 200-740, EGF 200, GHRP-6 740 μg/kg/day; for Incidence (%): i.p. days -10 to -1 before first immunization, 8 rats per group
Description: (§1) This prophylactic scheme was followed for 10 days (−10 to −1 day before the first immunization), using the intraperitoneal administration route. Clinical scores was based on the following grading: 0; no symptom, 1; tail paralysis, 2; paralysis of any of the hind limbs, 3; full paralysis of the hind limbs, 4; complete paralysis of the fore and hind limbs 5; moribund or death. Weight loss and vesical and rectal sphincter incontinency, which are also clinical signs of the disease, are scored by adding 0.5 to the clinical index previously described. Forty days after the first immunization the animals were anesthetized and euthanized, the encephalon and spinal cord were processed for histopathological study (10% de formalin, H & E y Luxol Blue staining). For the histopathological analysis the following parameters were consider: number and size of perivascular inflammatory infiltrates, number of demyelination lesions, number of apoptotic neurons and glial cells and astrocytes reactivity. The microscopic study was blindly conducted.

[3] = tested on: Experimental Autoimmune Encephalytis (EAE); test: Dose study of the combination in EAE model, therapeutical scheme (Example 3); conditions: EGF component of the combination
Experimental: Looking for a range of doses for the pharmaceutical combination that would be efficient for the therapeutic effects, it was used in the afore mentioned EAE model Female Lewis Rats (130 g), were subcutaneously immunized with guinea pig spinal cord homogenate (5 mg) in PBS (50%) and complete Freund adjuvant (50%), during days 0 and 6.
as §1, with “therapeutical” for “prophylactic”, “days,” for “days (−10 to −1 day before the first immunization),”, “using” for “using the”, “administration.” for “administration route.”

[4] = EGF/GHRP-6 200-740, EGF 200, GHRP-6 740 μg/kg/day
[5] = i.p. 10 days, EGF/GHRP-6 200-740, EGF 200, GHRP-6 740 μg/kg/day
[6] = i.p. 10 days, EGF/GHRP-6 200-740, EGF 200, GHRP-6 740 μg/kg/day, scale 0-5
[7] = i.p. days -10 to -1, EGF/GHRP-6 200-740, EGF 200, GHRP-6 740 μg/kg/day

Row | Substance | N° of perivascular inflammatory infiltrates (Means ± SD) [1, 4] | Incidence (%) [1] [%] | Days of Debut (Mean ± SD) [1, 5] [days] | Disease duration [1, 5] | Clinical Scores Mean ± SD (mean clinical index) [1, 6] | Clinical scores maximum [1, 6] | Clinical scores minimum [1, 6] | Clinical scores maximum ([2]; scale 0-5) | Clinical scores minimum ([2]; scale 0-5) | N° of perivascular inflammatory infiltrates (Means ± SD) [2] | Days of Debut (Mean ± SD) [2, 7] [days] | Clinical scores Means ± SD (mean clinical index) ([2]; i.p. days -10 to -1, EGF/GHRP-6 200-740, EGF 200, GHRP-6 740 μg/kg/day, scale 0-5) | Incidence (%) [2] [%] | dose range that maintains usefulness of the combination for protection against induction of EAE [3] [µg/kg/day]
1 | His-D-Trp-Ala-Trp-D-Phe-Lys-NH sub 2 [GHRP-6] | 2.25 ± 1.25 | 100 | 13.7 ± 2.3 | 15.5 ± 6.7 | 1.5±1.6 | 4 | 0.5 | 4 | 1 | 2.7 ± 1.95 | 11.7 ± 2.3 | 2.7±1.03 | 100 | –
2 | Epidermal Growth Factor [EGF] | 4.5 ± 1.9 | 100 | 12.5 ± 0.57 | 12.7 ± 4.1 | – | – | 1 | 4 | 1 | 4 ± 1.6 | 11.5 ± 0.57 | – | 100 | 50 to 400
